Measured values taken from the NIST ThermoML archive (doi:10.1016/j.jct.2019.07.008).
± gives the expanded uncertainty stated by the source.

Settings: Liquid, Ebulliometric method (Recirculating still)

SMILES | vapor or sublimation pressure (355.2 K) [kPa] | vapor or sublimation pressure (372.8 K) [kPa]
CC(C)(C)O [2-methylpropan-2-ol] | 100 ± 2 | 
O [water] |  | 100 ± 2
